Assays:
barley = experiment: Herbicidal bioassay, barley (% necrosis); format: in vivo
Summary of the method: (§1)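 Scoring of % necrosis followed EPPO guideline PP1/135 at specified growth intervals, five replicates per species and treatment. Plants at the 2-4 true leaf stage received Potter-tower sprays of DMSO-diluted compounds across six levels from 0.0001% to 0.05%, with water and DMSO controls.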

peas = experiment: Herbicidal bioassay, peas (% necrosis); format: in vivo
Summary of the method: as §1

CC(/C=N/OCc1ccccc1)Oc1ccc(Oc2ccc(C(F)(F)F)cn2)cc1 (stereo not drawn) [Compound 65, N-Benzyloxy-2-[4-[[5-(trifluoromethyl)-2-pyridyl]oxy]phenoxy]propan-1-imine]
C (less than 50% necrosis): Sum of % necrosis in barley (barley; Dose 0.000001, Day 0) | Sum of % necrosis in barley (barley; Dose 0.000001, Day 1) | Sum of % necrosis in barley (barley; Dose 0.000001, Day 3) | Sum of % necrosis in barley (barley; Dose 0.000001, Day 7) | Sum of % necrosis in barley (barley; Dose 0.000001, Day 10) | Sum of % necrosis in barley (barley; Dose 0.000001, Day 14) | Sum of % necrosis in barley (barley; Dose 0.000005, Day 0) | Sum of % necrosis in barley (barley; Dose 0.000005, Day 1) | Sum of % necrosis in barley (barley; Dose 0.000005, Day 3) | Sum of % necrosis in barley (barley; Dose 0.000005, Day 7) | Sum of % necrosis in barley (barley; Dose 0.000005, Day 10) | Sum of % necrosis in barley (barley; Dose 0.000005, Day 14) | Sum of % necrosis in barley (barley; Dose 0.00001, Day 0) | Sum of % necrosis in barley (barley; Dose 0.00001, Day 1) | Sum of % necrosis in barley (barley; Dose 0.00001, Day 3) | Sum of % necrosis in barley (barley; Dose 0.00001, Day 7) | Sum of % necrosis in barley (barley; Dose 0.00001, Day 10) | Sum of % necrosis in barley (barley; Dose 0.00001, Day 14) | Sum of % necrosis in barley (barley; Dose 0.00005, Day 0) | Sum of % necrosis in barley (barley; Dose 0.00005, Day 1) | Sum of % necrosis in barley (barley; Dose 0.00005, Day 3) | Sum of % necrosis in barley (barley; Dose 0.00005, Day 7) | Sum of % necrosis in barley (barley; Dose 0.00005, Day 10) | Sum of % necrosis in barley (barley; Dose 0.00005, Day 14) | Sum of % necrosis in barley (barley; Dose 0.0001, Day 0) | Sum of % necrosis in barley (barley; Dose 0.0001, Day 1) | Sum of % necrosis in barley (barley; Dose 0.0001, Day 3) | Sum of % necrosis in barley (barley; Dose 0.0001, Day 7) | Sum of % necrosis in barley (barley; Dose 0.0001, Day 10) | Sum of % necrosis in barley (barley; Dose 0.0001, Day 14) | Sum of % necrosis in barley (barley; Dose 0.0005, Day 0) | Sum of % necrosis in barley (barley; Dose 0.0005, Day 1) | Sum of % necrosis in barley (barley; Dose 0.0005, Day 3) | Sum of % necrosis in barley (barley; Dose 0.0005, Day 7) | Sum of % necrosis in barley (barley; Dose 0.0005, Day 10) | Sum of % necrosis in barley (barley; Dose 0.0005, Day 14) | Sum of % necrosis in Peas (peas; Dose 0.000001, Day 0) | Sum of % necrosis in Peas (peas; Dose 0.000001, Day 1) | Sum of % necrosis in Peas (peas; Dose 0.000001, Day 3) | Sum of % necrosis in Peas (peas; Dose 0.000001, Day 7) | Sum of % necrosis in Peas (peas; Dose 0.000001, Day 10) | Sum of % necrosis in Peas (peas; Dose 0.000001, Day 14) | Sum of % necrosis in Peas (peas; Dose 0.000005, Day 0) | Sum of % necrosis in Peas (peas; Dose 0.000005, Day 1) | Sum of % necrosis in Peas (peas; Dose 0.000005, Day 3) | Sum of % necrosis in Peas (peas; Dose 0.000005, Day 7) | Sum of % necrosis in Peas (peas; Dose 0.000005, Day 10) | Sum of % necrosis in Peas (peas; Dose 0.000005, Day 14) | Sum of % necrosis in Peas (peas; Dose 0.00001, Day 0) | Sum of % necrosis in Peas (peas; Dose 0.00001, Day 1) | Sum of % necrosis in Peas (peas; Dose 0.00001, Day 3) | Sum of % necrosis in Peas (peas; Dose 0.00001, Day 7) | Sum of % necrosis in Peas (peas; Dose 0.00001, Day 10) | Sum of % necrosis in Peas (peas; Dose 0.00001, Day 14) | Sum of % necrosis in Peas (peas; Dose 0.00005, Day 0) | Sum of % necrosis in Peas (peas; Dose 0.00005, Day 1) | Sum of % necrosis in Peas (peas; Dose 0.00005, Day 3) | Sum of % necrosis in Peas (peas; Dose 0.00005, Day 7) | Sum of % necrosis in Peas (peas; Dose 0.00005, Day 10) | Sum of % necrosis in Peas (peas; Dose 0.00005, Day 14) | Sum of % necrosis in Peas (peas; Dose 0.0001, Day 0) | Sum of % necrosis in Peas (peas; Dose 0.0001, Day 1) | Sum of % necrosis in Peas (peas; Dose 0.0001, Day 3) | Sum of % necrosis in Peas (peas; Dose 0.0001, Day 7) | Sum of % necrosis in Peas (peas; Dose 0.0001, Day 10) | Sum of % necrosis in Peas (peas; Dose 0.0001, Day 14) | Sum of % necrosis in Peas (peas; Dose 0.0005, Day 0) | Sum of % necrosis in Peas (peas; Dose 0.0005, Day 1) | Sum of % necrosis in Peas (peas; Dose 0.0005, Day 3) | Sum of % necrosis in Peas (peas; Dose 0.0005, Day 7) | Sum of % necrosis in Peas (peas; Dose 0.0005, Day 10) | Sum of % necrosis in Peas (peas; Dose 0.0005, Day 14)

Source: patent publication US20150094474A1, “AGRICULTURAL CHEMICALS” (Redx Pharma Ltd., priority 2012, published 2015)
